The text below walks through data of patent publication US10265296B2, “Methods for the treatment of systemic disorders treatable with mast cell stabilizers, including mast cell related disorders” (Respivant Sciences GmbH, priority 2015, dated 2019).

Molecules are shown by their SMILES. Where two headings read alike, the source gives them in different places.

For data set [1] the following is noted: cited from earlier work.
Data set [2] can be described thus: Single-dose, dose escalation study Part 1: pharmacokinetics of plasma and urine DSCG in healthy subjects. It is filed as in vivo, human. To be noted: same dose (40 mg). The procedure: • 1. […] 200 mg oral sodium cromoglycate solution (commercially available product), oral administration. […] 200 mg oral sodium cromoglycate solution (commercially available product), oral administration.
Prior to each dosing day, subjects were admitted to the clinic in the morning for baseline (pre-dose) assessments. Subjects were required to remain in the clinic for 12 h after study drug administration on each dosing day. Treatment Visits were separated by a washout period of 2 to 5 days.
Urine DSCG levels were measured for total DSCG excretion in the urine, and the bioavailability of the DSCG was calculated from the measured levels.
Pharmacokinetic parameters and plasma concentrations are listed and summarized. The summary statistics are presented as the geometric mean, arithmetic mean, arithmetic standard deviation (SD), min, median, max and n. The geometric statistics are not presented for Tmax. Analysis of variance (ANOVA) including terms for subject and treatment are used to calculate point estimates, and confidence intervals (CI) for treatment differences with respect to PK parameters (90% CI) are calculated.

Take `O=C(O)c1cc(=O)c2c(OCC(O)COc3cccc4oc(C(=O)O)cc(=O)c34)cccc2o1` [Cromolyn sodium, cromolyn sodium]: the oral bioavailability entry in data set [1] (listed as cromolyn sodium) is “less than 1%”; in data set [1] (listed as cromolyn), “about 1%”. Further, in data set [2], the “lung deposition with the 30 L device compared with the 40 L device, indicated by AUC data” value is reported as “surprisingly higher”.
